Test results: patent US5886178A, “3-aroylbenzylpyridazinone derivatives” (Syntex (U.S.A.) Inc., priority 1997, dated 1999)
pIC50: −log10 of the molar value.

Key:
[1] = system: prostaglandin E2 synthesis; experiment: Inhibition of eicosanoid (PGE2) synthesis in vivo, carrageenan air-pouch model in rats; parameters: species or system rat; details: 10 mg/Kg, oral, male rats
Protocol: In this assay, an air-pouch is created in the rat and the PGE2 levels in the air-pouch exudate are measured by enzyme immunoassay. Briefly, male rats were anesthetized using a 60:40 CO2 :O2 mixture and subsequently injected subcutaneously with 20 ml of sterilized air, under aseptic conditions, in the proximal area of the dorsum. This injection of sterile air causes the creation of a subcutaneous "air pouch". The next day, a further 10 ml of sterile air was injected into the previously formed pouch using the same technique. […] Control rats received vehicle alone. After 30 minutes, 5 ml of a 0.5% solution of carrageenan (Sigma, Lambda Type IV) was injected into the air pouch. The rats were euthanized 3 hr after the compound administration. […] The total exudate volume was recorded, and the samples were analyzed for PGE2 and 6-keto PGF1 by ELISA (Titerzyme®, PerSeptive Diagnostics) and TxB2 by radioimmuno assay (New England Nuclear Research, Catalog No. NEK-037), according to the manufacturer's directions.
The mean concentrations of PGE2 were calculated for each group. The anti-inflammatory activity of test materials is expressed as the percent inhibition of PGE2 formation in the test group relative to the control group.

[2] = Carrageenan-induced paw edema in the rat (anti-inflammatory activity); type: in vivo; details: 3 h, 10 mg/Kg, oral, female rats, read-out: % inhibition of increase in hind paw weight
Protocol: The anti-inflammatory activity of compounds of this invention was determined by measuring the inhibition of carrageenan-induced paw edema in the rat, using a modification of the method described in Winter C. k et al (1962) "Carrageenan-Induced Edema in Hind Paw of the Rat as an Assay for Anti-inflammatory Drugs". Proc. Soc. Exp. Biol. Med. 111: 544-547. This assay has been used as a primary in vivo screen for anti-inflammatory activity of most NSAIDs, and is considered predictive of human efficacy. Briefly, test materials were administered orally to female rats in a volume of 1 ml prepared as solutions or suspensions in an aqueous vehicle containing 0.9% NaCl, 0.5% sodium carboxymethyl-cellulose, 0.4% polysorbate 80, 0.9% benzyl alcohol and 97.3% distilled water. Control rats received vehicle alone. After 1 hr 0.05 ml of a 0.5% solution of Carrageenan (Type IV Lambda, Sigma Chemical Co.) in 0.9% saline was injected into the subplantar region of the right hind paw. Three hours later the rats were euthanized in a carbon dioxide atmosphere; hind paws were removed by severing at the tatso-crural joint; and the left and right paws were weighed. The increase in weight of the right paw over the left paw was obtained for each animal and the mean increases were calculated for each group. The anti-inflammatory activity of the test materials is expressed as the percent inhibition of the increase in hind paw weight of the test group relative to the vehicle-dosed control group.
The anti-inflammatory activities (expressed as % inhibition) of some of the compounds of the invention were: […]

COX II = biological target: T1, COX II (Homo sapiens, UniProt P35354); experiment: Inhibition of COX II in a cell based assay (human foreskin fibroblasts, PGE2 ELISA); parameters: host or cells: primary human foreskin fibroblasts (HFF), induced with PMA and human interleukin-1; details: human foreskin fibroblasts (HFF)
T1 sequence (P35354 18-604): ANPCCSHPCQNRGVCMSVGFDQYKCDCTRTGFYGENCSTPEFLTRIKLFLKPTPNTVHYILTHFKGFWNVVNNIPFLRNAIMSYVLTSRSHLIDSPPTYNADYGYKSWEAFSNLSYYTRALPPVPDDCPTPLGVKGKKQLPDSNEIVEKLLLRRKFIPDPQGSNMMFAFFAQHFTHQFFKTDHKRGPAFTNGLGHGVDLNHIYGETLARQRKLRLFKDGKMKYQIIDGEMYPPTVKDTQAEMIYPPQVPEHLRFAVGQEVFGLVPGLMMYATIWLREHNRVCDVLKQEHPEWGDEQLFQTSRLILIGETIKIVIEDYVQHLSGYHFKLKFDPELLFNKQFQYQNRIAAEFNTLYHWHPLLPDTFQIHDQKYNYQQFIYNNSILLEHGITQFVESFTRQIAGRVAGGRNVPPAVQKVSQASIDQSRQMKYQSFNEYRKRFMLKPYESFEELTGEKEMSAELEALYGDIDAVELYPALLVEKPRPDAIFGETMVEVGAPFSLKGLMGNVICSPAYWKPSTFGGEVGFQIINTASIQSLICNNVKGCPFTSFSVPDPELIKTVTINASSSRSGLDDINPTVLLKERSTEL
Protocol: The COX I and COX II inhibitory activity of compounds of this invention in a cell based assay was determined as described below.
The inhibitory activity of test compounds against cell associated COX-2 was measured using primary cultures of human foreskin fibroblasts (HFF). HFF cultures were obtained from ATCC, grown in DMEM medium (Gibco) and used between 13-30 passages. Cells were plated in 96-well microtiter plates at a density of 6-8×10^4 cells/well in DMEM containing 10% fetal calf serum (Sigma) and cultured at 37° C. until they became confluent. The medium was removed and the cells were washed once with PBS. COX-2 activity was induced by incubating the cells with fresh DMEM containing 0.1 μM phorbol 12-myristate 13-acetate (PMA, Sigma) and 1ng/ml of human interleukin-1 (Sigma) at 37° C. After 16 h the medium was removed and the cells were washed twice with phosphate buffered saline (PBS, Gibco). 200 μl/well of fresh medium containing desired concentrations of the test compounds in DMSO, or the carrier vehicle (control wells) was added and the cells incubated at 37° C. for 30 minutes; after which 5 μM calcium ionophore A23187 (Sigma) was added and the incubation was continued for an additional 10 minutes. The reaction was terminated by transferring the plates to ice. The culture supernatants were transferred and appropriately diluted, and the amount of prostaglandin E2 (PGE2) present in each supernatant was quantitated using an ELISA kit (Cayman Chemicals).
The COX I and COX II inhibitory activities in the cell based assay (expressed as IC50) of some compounds of the invention were: […]

## COc1ccc(C(=O)c2cccc(Cc3ccc(=O)[nH]n3)c2C)cc1 [Cpd 11, 6-[3-(4-methoxybenzoyl)-2-methylbenzyl]-2H-pyridazin-3-one]
[1]
  % inhibition of air pouch PGE2 formation: 80%
[2]
  inhibition in vivo at 10 mg/kg: 44%
COX II
  pIC50: 5.70
